Holding throughout (assay): CYP inhibition in human liver microsomes
What all share (format): in vitro ADME
For orientation: Liver microsomes are vesicles of endoplasmic reticulum, rich in cytochrome P450 enzymes.

One data set deals with T1, CYP1A2 (Homo sapiens, UniProt P05177).
T1 construct: Human liver microsomes (Corning, Cat #452161); tissue Corning 452161; host or cells: human liver microsomes
T1 sequence (P05177 1-516): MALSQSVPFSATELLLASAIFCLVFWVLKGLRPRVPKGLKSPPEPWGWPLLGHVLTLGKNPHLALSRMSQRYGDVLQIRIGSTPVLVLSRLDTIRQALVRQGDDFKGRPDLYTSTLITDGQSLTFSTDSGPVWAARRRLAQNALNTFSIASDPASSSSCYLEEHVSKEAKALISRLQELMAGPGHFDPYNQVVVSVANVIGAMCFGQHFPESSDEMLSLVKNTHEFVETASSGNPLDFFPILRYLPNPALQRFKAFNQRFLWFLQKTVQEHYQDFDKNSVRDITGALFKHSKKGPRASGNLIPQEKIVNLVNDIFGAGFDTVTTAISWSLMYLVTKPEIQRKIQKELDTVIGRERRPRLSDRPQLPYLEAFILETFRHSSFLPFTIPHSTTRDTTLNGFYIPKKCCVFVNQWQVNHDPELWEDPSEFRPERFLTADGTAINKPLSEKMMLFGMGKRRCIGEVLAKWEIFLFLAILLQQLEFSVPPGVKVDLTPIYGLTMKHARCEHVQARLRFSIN
To be noted: pH 7.4, read-out: CYP inhibition rate (%) 1A2. From the text: (§1) The inhibitory effect of the compounds of the present disclosure on the cytochrome P450 enzyme system was investigated in this assay.
(§2) [Test materials]: Human liver microsomes (Corning, Cat #452161); Reduced nicotinamide adenine dinucleotide phosphate (NADPH, MCE, Cat #HY-F0003/CS-4998); Phenacetin, Diclofenac, α-naphthoflavone, Omeprazole and Ketoconazole were purchased from TCI; S-Mephenytoin and testosterone were purchased from CAYMAN; Midazolam was purchased from Bioreclamation IVT; Quinidine was purchased from Damas-beta; Sulfaphenazole was purchased from MCE; Bufuralol was purchased from TRC.
(§3) [Experimental procedure]: Preparation of 0.1M potassium phosphate buffer (K-buffer): 100 mM potassium phosphate buffer (K-buffer) was prepared with potassium dihydrogen phosphate and dipotassium hydrogen phosphate, and adjusted to pH 7.4.
(§4) Preparation of 400× test compound and reference inhibitor solutions: 8 μL of 10 mM stock solution of the test compounds was mixed with 12 μL of acetonitrile. Preparation of inhibitor cocktail solution for CYP1A2, CYP2C9 and CYP2D6: […] of 1 mM α-naphthoflavone, 10 µL of 40 mM Sulfaphenazole, 10 μL of 10 mM Quinidine and 8 μL DMSO were mixed. Preparation of inhibitor cocktail solution for CYP3A4 and CYP2C19: 8 μL of DMSO solution was mixed with 12 μL of acetonitrile.
(§5) Preparation of 4×NADPH potassium phosphate solution: 66.7 mg of NADPH was added to 10 mL of K-buffer pH7.4. Preparation of 4× substrate potassium phosphate solution: the different substrates were prepared to 4-fold concentration test solutions with 10 mL 0.1M K-buffer according to the concentration requirements.
(§6) Preparation of 0.2 mg/mL human liver microsomes (HLM) solution: […] of 20 mg/mL human liver microsomes was added to […] K-buffer, and the solution was stored in ice bath until use.
(§7) 600 μL of 0.2 mg/mL HLM was added to a 96-well plate, followed by the addition of 3 μL of a 400-fold test compound solution; 200 μL of 0.2 mg/mL HLM was added to a 96-well plate, and 1 μL of the diluted positive control inhibitor solution was added. 30 μL of the compound solution mixed with human liver microsomes was added into a 96-well plate, and 15 μL of substrate solution was added then. The solutions obtained above, and the prepared NADPH solution were pre-incubated at 37° C. for 5 min. 15 μL of the pre-warmed NADPH solution was added to the reaction plate, mixed well, to initiate the reaction. The reaction plate was incubated at 37° C., for 5 minutes (3A4), for 10 minutes (1A2, 2C9, 2D6), for 45 minutes (2C19). At the end of the reaction, 120 μL of acetonitrile containing internal standard was added to quenched the reaction. Samples were vortexed for 10 min, centrifuged at 5594 g for 15 min, and prepared for LC-MS/MS analysis.

The target in the next data set is T2, CYP2D6 (Homo sapiens, UniProt P10635).
T2 construct: Human liver microsomes (Corning, Cat #452161); tissue Corning 452161; host or cells: human liver microsomes
The following applies: pH 7.4, read-out: CYP inhibition rate (%) 2D6.
Excerpt: as §1, §2, §3, §4, §5, §6, §7

The target in the next data set is T3, CYP3A4 (Homo sapiens, UniProt P08684).
T3 construct: Human liver microsomes (Corning, Cat #452161); tissue Corning 452161; host or cells: human liver microsomes
Excerpt: as §1, §2, §3, §4, §5, §6, §7

The next data set concerns the target T4, CYP2C19 (Homo sapiens, UniProt P33261).
T4 construct: Human liver microsomes (Corning, Cat #452161); tissue Corning 452161; host or cells: human liver microsomes
The following applies: pH 7.4, read-out: CYP inhibition rate (%) 2C19.
Excerpt: as §1, §2, §3, §4, §5, §6, §7

In a further data set the target is T5, CYP2C9 (Homo sapiens, UniProt P11712).
T5 construct: Human liver microsomes (Corning, Cat #452161); tissue Corning 452161; host or cells: human liver microsomes
To be noted: pH 7.4, read-out: CYP inhibition rate (%) 2C9.
Excerpt: as §1, §2, §3, §4, §5, §6, §7

Setting [1] is: pH 7.4, probe midazolam, substrate midazolam, read-out: CYP inhibition rate (%) CYP3A4 (midazolam).
Setting [2] is: pH 7.4, probe testosterone, substrate testosterone, read-out: CYP inhibition rate (%) CYP3A4 (testosterone).

Read-outs that look alike come from different tables or passages of the source.

T2 sequence (P10635 whole entry): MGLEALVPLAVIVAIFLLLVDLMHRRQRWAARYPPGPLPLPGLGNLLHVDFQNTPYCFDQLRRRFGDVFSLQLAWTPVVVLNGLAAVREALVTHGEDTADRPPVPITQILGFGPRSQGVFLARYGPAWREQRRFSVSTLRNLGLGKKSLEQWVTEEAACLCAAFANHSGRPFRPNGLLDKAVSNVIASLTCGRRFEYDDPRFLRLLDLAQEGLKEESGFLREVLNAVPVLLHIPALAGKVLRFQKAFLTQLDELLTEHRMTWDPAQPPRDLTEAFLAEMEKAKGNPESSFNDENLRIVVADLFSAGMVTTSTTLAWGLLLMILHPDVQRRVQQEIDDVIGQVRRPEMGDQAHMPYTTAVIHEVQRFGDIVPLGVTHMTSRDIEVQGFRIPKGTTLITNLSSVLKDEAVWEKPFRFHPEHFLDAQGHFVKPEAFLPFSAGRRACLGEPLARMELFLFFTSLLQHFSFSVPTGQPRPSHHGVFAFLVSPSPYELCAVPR
T3 sequence (P08684 whole entry): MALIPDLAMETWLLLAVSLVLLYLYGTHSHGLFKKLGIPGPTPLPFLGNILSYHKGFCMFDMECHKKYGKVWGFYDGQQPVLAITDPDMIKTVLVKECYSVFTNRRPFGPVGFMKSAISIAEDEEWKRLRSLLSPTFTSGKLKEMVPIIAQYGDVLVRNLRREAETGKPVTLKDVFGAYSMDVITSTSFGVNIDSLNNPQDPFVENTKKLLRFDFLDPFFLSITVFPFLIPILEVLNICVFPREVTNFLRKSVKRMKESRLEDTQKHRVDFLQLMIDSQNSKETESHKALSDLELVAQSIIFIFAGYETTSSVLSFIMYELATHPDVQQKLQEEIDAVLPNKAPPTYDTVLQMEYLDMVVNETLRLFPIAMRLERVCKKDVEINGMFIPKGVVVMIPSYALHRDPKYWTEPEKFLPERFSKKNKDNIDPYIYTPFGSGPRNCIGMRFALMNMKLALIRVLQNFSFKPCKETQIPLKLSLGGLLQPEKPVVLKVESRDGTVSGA
T5 sequence (P11712 whole entry): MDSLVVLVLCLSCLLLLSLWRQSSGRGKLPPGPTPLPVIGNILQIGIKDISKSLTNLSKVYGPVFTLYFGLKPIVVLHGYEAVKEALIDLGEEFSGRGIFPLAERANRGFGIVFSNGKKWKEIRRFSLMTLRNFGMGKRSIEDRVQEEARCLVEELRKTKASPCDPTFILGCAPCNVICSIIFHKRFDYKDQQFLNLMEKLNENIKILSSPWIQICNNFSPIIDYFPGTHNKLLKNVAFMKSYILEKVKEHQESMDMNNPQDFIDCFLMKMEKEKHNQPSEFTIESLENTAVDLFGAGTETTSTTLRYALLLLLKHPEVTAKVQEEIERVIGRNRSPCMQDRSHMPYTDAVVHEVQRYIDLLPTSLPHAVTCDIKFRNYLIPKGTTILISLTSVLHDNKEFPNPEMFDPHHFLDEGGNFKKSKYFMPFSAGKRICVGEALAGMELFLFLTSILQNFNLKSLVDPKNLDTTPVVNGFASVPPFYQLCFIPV
T4 sequence (P33261 whole entry): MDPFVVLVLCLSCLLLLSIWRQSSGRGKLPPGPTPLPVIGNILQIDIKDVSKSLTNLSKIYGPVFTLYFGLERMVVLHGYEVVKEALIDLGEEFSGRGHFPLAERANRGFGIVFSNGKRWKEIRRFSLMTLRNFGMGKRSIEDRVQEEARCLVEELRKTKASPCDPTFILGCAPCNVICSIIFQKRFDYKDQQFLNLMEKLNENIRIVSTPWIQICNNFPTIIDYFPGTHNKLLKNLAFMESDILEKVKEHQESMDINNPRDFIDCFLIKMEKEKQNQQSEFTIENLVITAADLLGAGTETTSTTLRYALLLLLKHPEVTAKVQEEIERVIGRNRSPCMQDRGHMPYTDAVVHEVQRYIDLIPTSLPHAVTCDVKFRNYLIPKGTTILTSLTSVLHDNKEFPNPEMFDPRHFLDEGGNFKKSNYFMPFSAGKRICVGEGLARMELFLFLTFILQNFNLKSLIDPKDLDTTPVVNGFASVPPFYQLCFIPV

On to `C=CC(=O)N1CCN(c2c(C#N)cnc3c(F)c(-c4ccc(F)c5sc(N)nc45)c(Cl)cc23)CC1` [Example 9, 4-(4-Acryloylpiperazin-1-yl)-7-(2-amino-7-fluorobenzo[d]thiazol-4-yl)-6-chloro-8-fluoroquinoline-3-carbonitrile], for which the inhibition (as a rule, the drop in the measured response relative to a control, in per cent) at 10 min, 10 µM on CYP1A2 was 13.6%; on CYP2D6, -11.4%; at CYP2C9, 42.5%. Also, the inhibition at 5 min, 10 µM at CYP3A4 (setting [1]) was 24%; on CYP3A4 (setting [2]) it was 30.9%. Also, at CYP2C19, the inhibition at 45 min, 10 µM came out at 34.9%.
As for `C=CC(=O)N1CCN(c2ncnc3c(F)c(-c4ccc(F)c5sc(N)nc45)c(Cl)cc23)CC1` [Ref. Comp. A, reference compound], the inhibition at 10 min, 10 µM at CYP1A2 is 73%; at CYP2D6, 32.6%; at CYP2C9 it was 52.4%. In addition, the inhibition at 5 min, 10 µM came to 11.1% on CYP3A4 (setting [1]) and 10.9% at CYP3A4 (setting [2]). Also, the inhibition at 45 min, 10 µM on CYP2C19 was 74.3%.
Turning to `C=CC(=O)N1CCN(c2nc(=O)n(-c3c(C)ccnc3C(C)C)c3nc(-c4c(O)cccc4F)c(F)cc23)[C@@H](C)C1` (atropisomer, axis not shown) [AMG510, reference compound], the inhibition at 10 min, 10 µM on CYP1A2 worked out at 10.3%; at CYP2D6, 23.7%; at CYP2C9, 26.2%. Further, the results for the inhibition at 5 min, 10 µM on CYP3A4 (setting [1]) and at CYP3A4 (setting [2]) were 63.7% and 24.8%, respectively. Moreover, the inhibition at 45 min, 10 µM at CYP2C19 is 11.1%.
Consider `C=CC(=O)N1CCN(c2c(C#N)cnc3c(F)c(-c4ccc(F)c5sc(N)nc45)c(Cl)cc23)C[C@H]1C` [Example 8, 4-((R)-4-acryloyl-3-methylpiperazin-1-yl)-7-(2-amino-7-fluorobenzo[d]thiazol-4-yl)-6-chloro-8-fluoroquinoline-3-carbonitrile], for which the inhibition at 10 min, 10 µM at CYP1A2 turned out to be 17.6%; at CYP2D6 it was 13.8%; at CYP2C9 it was 49.9%. The values for the inhibition at 5 min, 10 µM on CYP3A4 (setting [1]) and at CYP3A4 (setting [2]) were 22% and 16.9%, respectively. Moreover, the inhibition at 45 min, 10 µM at CYP2C19 turned out to be 31.2%.

Source of the values: US20230406849A1, “KRAS INHIBITORS FOR TREATMENT OF CANCERS” (TYLIGAND BIOSCIENCE (SHANGHAI) LIMITED, priority 2020, published 2023).
